The assay addresses T1, CHK1 (checkpoint kinase-1) (Homo sapiens, UniProt O14757).
T1 construct: gene CHEK1
T1 sequence (O14757 1-476): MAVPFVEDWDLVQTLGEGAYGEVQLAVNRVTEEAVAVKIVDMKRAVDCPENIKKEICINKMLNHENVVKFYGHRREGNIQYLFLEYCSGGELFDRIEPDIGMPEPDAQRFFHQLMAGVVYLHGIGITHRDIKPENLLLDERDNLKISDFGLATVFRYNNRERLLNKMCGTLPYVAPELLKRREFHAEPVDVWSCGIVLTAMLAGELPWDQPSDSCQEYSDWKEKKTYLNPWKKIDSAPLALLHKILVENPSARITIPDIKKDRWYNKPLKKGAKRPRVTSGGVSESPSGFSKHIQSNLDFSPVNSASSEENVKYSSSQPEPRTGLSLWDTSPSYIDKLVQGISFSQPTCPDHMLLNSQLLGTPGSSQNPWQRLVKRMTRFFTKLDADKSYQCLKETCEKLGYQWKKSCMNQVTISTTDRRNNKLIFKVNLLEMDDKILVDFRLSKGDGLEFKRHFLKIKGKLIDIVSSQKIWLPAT
The assay is described as follows: in vitro binding test against human CHK1 (Eurofins Discovery), at […].

For the molecule `CNC(=O)c1ccc(NC(=O)Nc2cnc(C)cn2)c(OC[C@@H]2CNCCO2)c1` [9a], the inhibition at 1 µM stood at 95%. `CNC(=O)c1ccc(OC[C@@H]2CNCCO2)c(NC(=O)Nc2cnc(C)cn2)c1` [9b] registered an inhibition at 1 µM of 90%. As for `Cc1cnc(NC(=O)Nc2cc(Br)c(C)cc2OC[C@@H]2CNCCO2)cn1` [rabusertib], at 1 µM the inhibition was 98%.

As a reminder, the inhibition is the share of the control response that was lost under treatment.

These data come from paper PMC12668314, “Identification of a Proteolysis‐Targeting‐Chimera that Addresses Activated Checkpoint Kinase‐1 Reveals its Non‐Catalytic Functions in Tumor Cells” (Angewandte Chemie (International Ed. in English), 2025).
